From publication PMC6008493, “Thioamide substitution to probe the hydroxyproline recognition of VHL ligands” (Bioorganic & Medicinal Chemistry, 2018)
Read-outs that look alike come from different tables or passages of the source.

Legend:
[1] = Quantification of ligand trans and cis isomers in solution by NMR; format: physicochemical; conditions: free ligand in solution
Excerpt: We next evaluated the impact of thioamide substitutions to the n → π^∗ interaction in the ligand free state in solution. This interaction is only possible when the Hyp (thio)amide group is in the trans isomer conformation (Fig. 1A). Thus, the ratio between the trans and cis isomers at equilibrium can be used to infer the strength of the n → π^∗ interaction.[13]
Quantification of ligands trans and cis isomers in solution.

[2] = target: T1, VBC protein (VHL, elongin B, elongin C) (Homo sapiens, UniProt P40337); test: Competitive fluorescence polarization (FP) binding assay displacing FAM-labelled HIF-1α peptide
T1 construct: made in house
Experimental: Control wells contained VBC and peptide in the absence of compound (maximum signal), and peptide in the absence of protein (background signal). Data were obtained in triplicate and the percentage of displacement was determined and graphed against log[VHL inhibitors]. Average IC50 values and the standard error of the mean (SEM) were determined for each titration using Prism 6. Dissociation constants Kd were back-calculated from the measured IC50 values using a displacement binding model, as described previously.^6

[3] = target: VBC complex (VHL, elongin B, elongin C) (Homo sapiens, UniProt P40337); test: Isothermal titration calorimetry (ITC) direct titration; conditions: for ΔH: ITC enthalpy of binding; for ΔH / Kd: 25°C; for Kd: read-out: Kd ITC, pH 7, 3% DMSO
[4] = back-calculated from measured IC50, 15 nM VBC, 10 nM FAM-HIF-1α peptide, pH 7, read-out: Kd FP
[5] = relative to unmodified ligand 1

Row | SMILES | trans:cis (%) - cis isomer [1] [%] | trans:cis (%) - trans isomer [1] [%] | Kd [2, 4] [µM] | loss in binding affinity by FP [2, 5] | ΔH [3] [kcal/mol] | Kd [3] [µM] | loss in binding affinity by ITC [3, 5] | Kd ([2]; text summary of FP and ITC, read-out: Kd) [µM]
1 | CC(=O)N[C@@H](C)C(=O)N1C[C@H](O)C[C@H]1C(=O)NCc1ccc(-c2scnc2C)cc1 [compound 1] | 8 | 92 | – | – | – | – | – | –
2 | CC(=O)N[C@@H](C)C(=S)N1C[C@H](O)C[C@H]1C(=O)NCc1ccc(-c2scnc2C)cc1 [compound 3, (2S,4R)-1-((S)-2-Acetamidopropanethioyl)-4-hydroxy-N-(4-(4-methylthiazol-5-yl)benzyl)pyrrolidine-2-carboxamide] | 6 | 94 | 1 ± 0.4 | twofold | -6.79 ± 0.01 | 0.76 ± 0.02 | twofold | –
3 | CC(=O)N[C@@H](C)C(=S)N1C[C@H](O)C[C@H]1C(=S)NCc1ccc(-c2scnc2C)cc1 [compound 4, N-((S)-1-((2S,4R)-4-hydroxy-2-((4-(4-methylthiazol-5-yl)benzyl)carbamothioyl)pyrrolidin-1-yl)-1-thioxopropan-2-yl)acetamide] | 10 | 90 | > 13 | – | -2.56 ± 0.01 | 21.6 ± 0.8 | – | > 10
4 | CC(=O)N[C@@H](C)C(=O)N1C[C@H](O)C[C@H]1C(=S)NCc1ccc(-c2scnc2C)cc1 [compound 2, N-((S)-1-((2S,4R)-4-Hydroxy-2-((4-(4-methylthiazol-5-yl)benzyl)carbamothioyl)pyrrolidin-1-yl)-1-oxopropan-2-yl)acetamide] | 11 | 89 | – | – | – | – | – | –
